Test results as given in patent publication US20250311727A1, “SUBSTITUTED 2-AMINOAZINES AND SALTS THEREOF, AND USE THEREOF AS HERBICIDAL ACTIVE SUBSTANCES” (BAYER AKTIENGESELLSCHAFT, priority 2022, published 2025).

How the values were obtained:
Type in all cases: in vivo
[1] = system: Amaranthus retroflexus; test: Post-emergence herbicidal efficacy at 320 g/ha, AMARE; details: rated visually after about 3 weeks vs untreated controls, 100% = plants have died
Text: (§1) Unwanted plants/weeds: • ABUTH: Abutilon theophrasti • ALOMY: Alopecurus myosuroides • AMARE: Amaranthus retroflexus • DIGSA: Digitaria sanguinalis • ECHCG: Echinochloa crus-galli • KCHSC: Kochia scoparia • LOLRI: Lolium rigidum • MATIN: Matricaria inodora • POAAN: Poa annua • POLCO: Polygonum convolvulus • SETVI: Setaria viridis • STEME: Stellaria media • VERPE: Veronica persica • VIOTR: Viola tricolor A. Post-Emergence Herbicidal Efficacy at 320 g/ha
(§2) Seeds of mono- and dicotyledonous weed plants were placed in plastic pots in sandy loam soil (doubly sown with in each case one species of mono- or dicotyledonous weed plants per pot), covered with soil and cultivated in a greenhouse under controlled growth conditions. 2 to 3 weeks after sowing, the test plants were treated at the one-leaf stage. The compounds of the invention, formulated in the form of wettable powders (WP) or as emulsion concentrates (EC), were applied to the green parts of the plants as aqueous suspension or emulsion with addition of 0.5% additive at a water application rate equivalent to 600 litres per hectare. After the test plants had been kept in the greenhouse under optimum growth conditions for about 3 weeks, the activity of the preparations was rated visually in comparison to untreated controls.
(§3) For example, 100% activity=the plants have died, 0% activity=like control plants.
(§4) Tables A1 to A10 below show the effects of selected compounds of the general formula (I) according to Table 1 on various harmful plants and at an application rate corresponding to 320 g/ha, which were obtained by the trial procedure specified above.

[2] = system: Veronica persica; test: Post-emergence herbicidal efficacy at 320 g/ha, VERPE; details: rated visually after about 3 weeks vs untreated controls, 100% = plants have died
Text: as §1, §2, §3, §4

[3] = system: Kochia scoparia; test: Post-emergence herbicidal efficacy at 320 g/ha, KCHSC; details: rated visually after about 3 weeks vs untreated controls, 100% = plants have died
Text: as §1, §2, §3, §4

[4] = system: Amaranthus retroflexus; test: Pre-emergence herbicide efficacy at 320 g/ha, AMARE; details: scored visually after about 3 weeks vs untreated controls, 100% = plants have died
Text: as §1
(§5) Seeds of mono- and dicotyledonous weed plants were placed in plastic pots in sandy loam soil (doubly sown with one species each of mono- or dicotyledonous weed plants per pot) and covered with soil. The compounds of the invention, formulated in the form of wettable powders (WP) or as emulsion concentrates (EC), were then applied to the surface of the covering soil as aqueous suspension or emulsion with addition of 0.5% additive at a water application rate of 600 litres per hectare (converted). After the treatment, the pots were placed in a greenhouse and kept under good growth conditions for the test plants. After about 3 weeks, the efficacy of the preparations was scored visually in comparison with untreated controls as percentages.
as §3
(§6) Tables C1 to C12 below show the effects of selected compounds of the general formula (I) according to Table 1 on various harmful plants and at an application rate corresponding to 320 g/ha, which were obtained by the trial procedure specified above.

[5] = system: Stellaria media; test: Post-emergence herbicidal efficacy at 320 g/ha, STEME; details: rated visually after about 3 weeks vs untreated controls, 100% = plants have died
Text: as §1, §2, §3, §4

[6] = system: Setaria viridis; test: Pre-emergence herbicide efficacy at 320 g/ha, SETVI; details: scored visually after about 3 weeks vs untreated controls, 100% = plants have died
Text: as §1, §5, §3, §6

| SMILES | Post-emergence efficacy at 320 g/ha against AMARE in % [1] [%] | Post-emergence efficacy at 320 g/ha against VERPE in % [2] [%] | Post-emergence efficacy at 320 g/ha against KCHSC in % [3] [%] | Pre-emergence efficacy at 320 g/ha against AMARE in % [4] [%] | Post-emergence efficacy at 320 g/ha against STEME in % [5] [%] | Pre-emergence efficacy at 320 g/ha against SETVI in % [6] [%] |
| --- | --- | --- | --- | --- | --- | --- |
| N#Cc1cc(Cl)cnc1Nc1ccccc1CCCCC(F)(F)F [Example 1-76] | 90 | 90 |  |  |  |  |
| N#Cc1cccc(Nc2ncc(Cl)cc2F)c1-n1cc(C(F)(F)F)cn1 [Example 1-54] | 100 | 100 | 90 |  |  |  |
| FC(F)(F)CCCSc1ccccc1Nc1ncc(Cl)cn1 [Example 1-4] | 90 |  |  |  |  |  |
| N#Cc1cccc(Nc2ccc(Cl)cn2)c1-n1cc(C(F)(F)F)cn1 [Example 1-59] | 90 | 100 | 90 | 90 |  |  |
| Fc1cnc(Nc2ccccc2CCCC(F)(F)F)nc1 [Example 1-3] | 90 | 90 |  |  |  |  |
| N#Cc1cccc(Nc2ncc(Cl)cn2)c1-n1cc(Br)cn1 [Example 1-73] | 100 | 90 | 90 |  |  |  |
| N#Cc1cc(Cl)cnc1Nc1cccc(C#N)c1-n1cc(C(F)(F)F)cn1 [Example 1-55] | 100 | 100 | 90 | 100 |  |  |
| N#Cc1cccc(Nc2ncc(C(F)(F)F)cn2)c1-n1cc(C(F)(F)F)cn1 [Example 1-41] |  | 90 |  |  |  |  |
| N#Cc1ccc(Nc2cccc(C#N)c2-n2cc(C(F)(F)F)cn2)nc1 [Example 1-58] | 90 | 90 |  |  |  |  |
| Clc1ccc(-c2ccccc2Nc2ncc(Cl)cn2)cc1 [Example 1-25] |  | 90 |  |  | 100 |  |
| O=S(=O)(CCCC(F)(F)F)Oc1c(F)cccc1Nc1ncc(F)cn1 [Example 1-15] | 90 | 90 |  |  |  |  |
| N#Cc1cccc(Nc2ccc(F)cn2)c1-n1cc(C(F)(F)F)cn1 [Example 1-52] | 90 | 90 |  | 90 |  |  |
| Fc1ccc(-c2ccccc2Nc2ncc(Cl)cn2)cc1F [Example 1-28] | 100 | 100 |  |  |  |  |
| Fc1cccc(Nc2ccc(Cl)cn2)c1-c1cc(C(F)F)no1 [Example 1-56] | 90 | 90 |  |  |  |  |
| Fc1cc(Cl)cnc1Nc1cccc(F)c1-c1cc(C(F)F)no1 [Example 1-57] |  |  | 90 |  |  |  |
| O=S(=O)(CCCC(F)(F)F)Oc1c(F)cccc1Nc1ncc(Cl)cn1 [Example 1-14] | 90 | 90 |  | 90 |  |  |
| O=S(=O)(CCC(F)(F)F)Oc1c(F)cccc1Nc1ncc(Cl)cn1 [Example 1-16] |  | 90 |  | 90 |  |  |
| FC(F)(F)c1cnn(-c2ccccc2Nc2ncc(Cl)cn2)c1 [Example 1-78] |  | 90 |  | 100 | 90 | 90 |
| FC(F)(F)CCCc1ccccc1Nc1ccc(Cl)cn1 [Example 1-70] | 100 | 90 |  |  |  |  |
| O=S(=O)(CCC(F)(F)F)Oc1c(F)cccc1Nc1ncc(F)cn1 [Example 1-17] | 90 |  |  |  |  |  |
| Cc1cc(C)c(-c2cc(C(F)F)no2)c(Nc2ccc(Cl)cn2)n1 [Example 2-7] |  | 90 |  |  |  |  |
